Like-named read-outs stand apart in the source and are kept apart here.
Assays:
bordetella avium = conditions: turkeys; route not stated; cited from earlier work
[1] = Volatilization of drugs with a vaporization vehicle; format: physicochemical; conditions: menthol as vaporization vehicle
Description: The amount of vaporization vehicle depends on which drug is delivered. […] Other potential vaporization vehicles include carvone, menthone and camphor.

in vivo [2] = conditions: rat, inhaled or intranasal
Method: Tests were conducted to study the entry of sulfa drugs into the blood and lungs of test subjects. […] Rats were placed in the treatment chamber 9. […] An air pump was used to circulate air through the volatile chamber 10 to the treatment chamber. The rats' condition, temperature of the flask and vapor flow into the treatment chamber 9 were monitored. After three minutes of inhalation therapy the air flow was shut off and the rats were removed from treatment chamber 9. Blood and lung tissue were removed for testing.

in vivo [3] = conditions: inhaled or intranasal
Method: (§1) The levels that were taken orally were administered for a period of time on the order of days, while inhalation treatments were for a period of time on the order of minutes in length (five minutes).

[4] = in vivo
Method: as §1

[5] = rat, in vivo, inhaled or intranasal, 0.05 h
Method: Tests were conducted to study the entry of sulfa drugs into the blood and lungs of test subjects. […] Samples of sulfamethazine and menthol (0.285 grams equal portions of each) were weighed and heated at 180° C. in a distillation flask in the volatile chamber. Rats were placed in the treatment chamber 9. […] An air pump was used to circulate air through the volatile chamber 10 to the treatment chamber. The rats' condition, temperature of the flask and vapor flow into the treatment chamber 9 were monitored. After three minutes of inhalation therapy the air flow was shut off and the rats were removed from treatment chamber 9. Blood and lung tissue were removed for testing.

| Compound | success at treating bordetella avium disease (bordetella avium) | need for menthol for volatilization [1] | Lungs: sulfamethazine level (in vivo [2]; 0.05 h) | concentration at 0.05 h (in vivo [2]; Lungs: sulfamethazine level) [ng/g] | concentration at 25 min (in vivo [3]) [ng/g] | sulfamethazine level in lung tissue, inhalation, immediate ([4]; 0 min) [ppm] | sulfamethazine level in lung tissue, oral ([4]; po) [ppm] | Lungs: sulfamethazine level [5] [ppb] |
| --- | --- | --- | --- | --- | --- | --- | --- | --- |
| Cc1cc(NS(=O)(=O)c2ccc(N)cc2)no1 [sulfamethoxazole] | successful at treating the disease |  |  |  |  |  |  |  |
| gentamicin | successful at treating the disease | can be volatilized with little or no menthol |  |  |  |  |  |  |
| Cc1cc(C)nc(NS(=O)(=O)c2ccc(N)cc2)n1 [sulfamethazine] |  |  | ~ 0.1 ppm | ~100 | 100 | 0.2 | 0.1 | 50 |
